Structures can show the parent of a compound that is named as a salt.
System: Her2 receptor expression at the surface of SKBr3 cells
Assay: phenotypic SKBr3/HER2 cell test (Her2 surface expression by flow cytometry)
Format: cell-based
Details: inhibition of Her2 expression
Protocol: The cellular activity of the compounds can in particular be evaluated by means of the phenotypic “SKBr3/HER2” cell test described below:
The SKBr3 […] adenocarcinoma cells, overexpressing the Her2 tyrosine kinase receptor, originate from the ATCC (HTB-30) and are cultured in McCoy's 5A medium supplemented with 10% FBS and 1% L-glutamine.
The cells are seeded in 12-well plates at a proportion of 125 000 cells per well in 1 ml of complete medium. The following day, the products are added at varying concentrations. After incubation for 24 h, the cells are trypsinized, washed with PBS and incubated with 100 ng of anti-Her2 antibody coupled to PE (Phycoerythrin) (BD 340552) for 30 minutes at 4° C. in the dark. The fluorescence due to the expression of the Her2 receptor at the surface of the cells is then read using a FACS Calibur flow cytometer (Becton-Dickinson). The percentage inhibition of Her2 expression as a function of the concentrations of product tested is fitted by the nonlinear regression technique (XLfit, equation 205) in order to measure an IC50 for each product.

[1] = Homo sapiens, SK-BR-3, 24 h incubation

SMILES	IC50 [1]	IC50 (24 h incubation)
CN1C2CCC1CC(Nc1cc(-n3c4ccccc4c4c(-c5ccc(C#N)nc5)cccc43)ccc1C(N)=O)C2 (centres unmarked) [Example 135, 4-[4-(6-cyanopyridin-3-yl)-9H-carbazol-9-yl]-2-[(8-methyl-8-azabicyclo[3.2.1]oct-3-yl)amino]benzamide]	< 1000 nM	
NC(=O)c1ccc(-n2c3ccccc3c3c(-c4cnc5ccccc5c4)cccc32)cc1N[C@H]1CN2CCC1CC2 [Example 108, 2-((R)-(1-azabicyclo[2.2.2]oct-3-yl)amino)-4-[4-(quinolin-3-yl)-9H-carbazol-9-yl]benzamide]	< 1000 nM	
NC(=O)c1ccc(-n2c3ccccc3c3c(-c4cnc5ccccc5c4)cccc32)cn1 [Example 78, 5-[4-(quinolin-3-yl)-9H-carbazol-9-yl]pyridin-2-amide]	1000 to 10000 nM	
NC(=O)c1ccc(-n2c3ccccc3c3c(-c4ccc(C(F)(F)F)nc4)cccc32)cc1N[C@H]1CC[C@H](O)CC1 [Example 74, 2-[(4-trans-hydroxycyclohexyl)amino]-4-{4-[6-(trifluoromethyl)pyridin-3-yl]-9H-carbazol-9-yl}benzamide]	1000 to 10000 nM	
NC(=O)c1ccc(-n2c3ccccc3c3c(-c4nc5ccc(F)cc5[nH]4)cccc32)cc1N[C@H]1CN2CCC1CC2 [Example 98, 2-{(R)-(1-azabicyclo[2.2.2]oct-3-yl)amino}-4-[4-(6-fluoro-1H-benzimidazol-2-yl)-9H-carbazol-9-yl]benzamide]	< 1000 nM	
NC(=O)c1ccc(-n2c3ccccc3c3c(-c4nc5cc(F)ccc5[nH]4)cccc32)cc1N[C@H]1CCCC[C@@H]1CO (single isomer, unassigned) [Example 131]		< 1000 nM
NC(=O)c1ccc(-n2c3ccccc3c3c(-c4cnc5ccccc5c4)cccc32)cc1NC1CCOCC1 [Example 113]	< 1000 nM	
NC(=O)c1ccc(-n2c3ccccc3c3c(-c4nc5ccc(F)cc5[nH]4)cccc32)cc1NCc1ccccn1 [Example 81, 4-[4-(6-fluoro-1H-benzimidazol-2-yl)-9H-carbazol-9-yl]-2-[(pyridin-2-ylmethyl)amino]benzamide]	< 1000 nM	
CC1(C)CC(Nc2cc(-n3c4ccccc4c4c(-c5nc6ccc(F)cc6[nH]5)cccc43)ccc2C(N)=O)CC(C)(C)N1 [Example 83]	< 1000 nM	
NC(=O)c1ccc(-n2c3ccccc3c3c(-c4cnc5ccccc5c4)cccc32)cc1NCc1cccnc1 [Example 105, 2-[(pyridin-3-ylmethyl)amino]-4-[4-(quinolin-3-yl)-9H-carbazol-9-yl]benzamide]	< 1000 nM	
CC1(C)CC(Nc2cc(-n3c4ccccc4c4c(-c5cnc6ccccc6c5)cccc43)cnc2C(N)=O)CC(C)(C)N1 [Example 132, 5-[4-(quinolin-3-yl)-9H-carbazol-9-yl)-3-(2,2,6,6-tetramethylpiperidin-4-ylamino)pyridine-2-carboxamide]	1000 to 10000 nM	
NC(=O)c1ccc(-n2c3ccccc3c3c(-c4cncc(O)c4)cccc32)cc1NCCCO [Example 141, 2-[(3-hydroxypropyl)amino]-4-[4-(5-hydroxypyridin-3-yl)-9H-carbazol-9-yl]benzamide]	< 1000 nM	
NC(=O)c1ccc(-n2c3ccccc3c3c(-c4nc5ccc(F)cc5[nH]4)cccc32)cc1NCc1cocn1 [Example 92, 4-[4-(6-fluoro-1H-benzimidazol-2-yl)-9H-carbazol-9-yl]-2-[(oxazol-4-ylmethyl)amino]benzamide]	< 1000 nM	
NC(=O)c1ccc(-n2c3ccccc3c3c(-c4nc5ccc(F)cc5[nH]4)cccc32)cc1NC[C@@H]1CCCC[C@@H]1O (racemic) [Example 93]	< 1000 nM	
CC(C)(O)CCNc1cc(-n2c3ccccc3c3c(-c4ccc(C#N)nc4)cccc32)ccc1C(N)=O [Example 125, 4-[4-(6-cyanopyridin-3-yl)-9H-carbazol-9-yl]-2-[(3-hydroxy-3-methylbutyl)amino]benzamide]	< 1000 nM	

Second part, the compound after the results:

IC50 [1]	IC50 (24 h incubation)	SMILES
< 1000 nM		NC(=O)c1ccc(-n2c3ccccc3c3c(-c4cnc5ccccc5c4)cccc32)cc1NC1CCCC(O)C1 [Example 109, 2-(3(R,S)-hydroxycyclohexyl-1(R,S)-amino)-4-[4-(quinolin-3-yl)-9H-carbazol-9-yl]benzamide]
< 1000 nM		Cn1cc(CNc2cc(-n3c4ccccc4c4c(-c5cnc6ccccc6c5)cccc43)ccc2C(N)=O)cn1 [Example 119, 2-[(1-methyl-1H-pyrazol-4-yl)methylamino]-4-[4-(quinolin-3-yl)-9H-carbazol-9-yl]benzamide]
< 1000 nM		NC(=O)c1ccc(-n2c3ccccc3c3c(-c4nc5ccc(F)cc5[nH]4)cccc32)cc1NCc1cccnc1 [Example 104, 4-[4-(6-fluoro-1H-benzimidazol-2-yl)-9H-carbazol-9-yl]-2-[(pyridin-3-ylmethyl)amino]benzamide]
< 1000 nM		NC(=O)c1ccc(-n2c3ccccc3c3c(-c4cnc5ccccc5c4)cccc32)cc1NC1CCNCC1 [Example 124, 2-(piperidin-4-ylamino)-4-[4-(quinolin-3-yl)-9H-carbazol-9-yl]benzamide hydrochloride]
< 1000 nM		NC(=O)c1ccc(-n2c3ccccc3c3c(-c4cncc(O)c4)cccc32)cc1N[C@H]1CC[C@H](O)CC1 [Example 73, 2-[(4-trans-hydroxycyclohexyl)amino]-4-[4-(5-hydroxypyridin-3-yl)-9H-carbazol-9-yl]benzamide]
< 1000 nM		NC(=O)c1cnc(-n2c3ccccc3c3c(-c4cnc5ccccc5c4)cccc32)cc1N[C@H]1CC[C@H](O)CC1 [Example 142, 2-[4-(quinolin-3-yl)-9H-carbazol-9-yl]-4-(4-trans-hydroxycyclohexylamino)pyridine-5-carboxamide]
< 1000 nM		NC(=O)c1ccc(-n2c3ccccc3c3c(-c4cnc5ccccc5c4)cccc32)cc1NC[C@@H]1CCCC[C@@H]1O (racemic) [Example 95]
< 1000 nM		NC(=O)c1ccc(-n2c3ccccc3c3c(-c4nc5ccc(F)cc5[nH]4)cccc32)cc1N[C@H]1CCCC[C@@H]1CO (racemic) [Example 97]
< 1000 nM		CN1C(C)(C)CC(Nc2cc(-n3c4ccccc4c4c(-c5nc6ccc(F)cc6[nH]5)cccc43)ccc2C(N)=O)CC1(C)C [Example 85, 4-[4-(6-fluoro-1H-benzimidazol-2-yl)-9H-carbazol-9-yl]-2-(1,2,2,6,6-pentamethyl-1H-piperidin-4-ylamino]benzamide]
< 1000 nM		CC(C)(O)CCNc1cc(-n2c3ccccc3c3c(-c4cnc5ccccc5c4)cccc32)ccc1C(N)=O [Example 72, 2-(3-hydroxy-3-methylbutylamino)-4-[4-(quinolin-3-yl)-9H-carbazol-9-yl]benzamide]
< 1000 nM		NC(=O)c1cnc(-n2c3ccccc3c3c(-c4cnc5ccccc5c4)cccc32)cc1NC1CCOCC1 [Example 137]
< 1000 nM		NC(=O)c1ccc(-n2c3ccccc3c3c(-c4nc5ccc(F)cc5[nH]4)cccc32)cc1NCCc1ccccn1 [Example 79, 4-[4-(6-fluoro-1H-benzimidazol-2-yl)-9H-carbazol-9-yl]-2-[2-(pyridin-2-yl)ethylamino]benzamide]
< 1000 nM		CN1C(C)(C)CC(Nc2cc(-n3c4ccccc4c4c(-c5ccc(C#N)nc5)cccc43)ccc2C(N)=O)CC1(C)C [Example 127, 4-[4-(6-cyanopyridin-3-yl)-9H-carbazol-9-yl]-2-[(1,2,2,6,6-pentamethylpiperidin-4-yl)amino]benzamide]
< 1000 nM		CN1CCC(O)(CCNc2cc(-n3c4ccccc4c4c(-c5nc6ccc(F)cc6[nH]5)cccc43)ccc2C(N)=O)CC1 [Example 70, 4-[4-(6-fluoro-1H-benzimidazol-2-yl)-9H-carbazol-9-yl]-2-[2-(4-hydroxy-1-methylpiperidin-4-yl)ethylamino]benzamide]
< 1000 nM		NC(=O)c1ccc(-n2c3ccccc3c3c(-c4nc5ccc(F)cc5[nH]4)cccc32)cc1NCC1(O)CCCC1 [Example 111, 4-[4-(6-fluoro-1H-benzimidazol-2-yl)-9H-carbazol-9-yl]-2-[(1-hydroxycyclopentan-1-yl)methylamino]benzamide]
< 1000 nM		Cn1cc(CNc2cc(-n3c4ccccc4c4c(-c5nc6ccc(F)cc6[nH]5)cccc43)ccc2C(N)=O)cn1 [Example 115, 4-[4-(6-fluoro-1H-benzimidazol-2-yl)-9H-carbazol-9-yl]-2-[(1-methyl-1H-pyrazol-4-yl)methylamino]benzamide]
< 1000 nM		CN1C(C)(C)CC(Nc2cc(-n3c4ccccc4c4c(-c5cnc6ccccc6c5)cccc43)cnc2C(N)=O)CC1(C)C [Example 122]
< 1000 nM		NC(=O)c1ccc(-n2c3ccccc3c3c(-c4cnc5ccccc5c4)cccc32)cc1NCC1(O)CC1 [Example 121, 4-[4-(quinolin-3-yl)-9H-carbazol-9-yl]-2-[(1-hydroxycyclopropan-1-yl)methylamino]benzamide]
< 1000 nM		NC(=O)c1ncc(-n2c3ccccc3c3c(-c4cnc5ccccc5c4)cccc32)cc1NCCc1ccccn1 [Example 133, 3-[(2-pyridin-2-yl)ethylamino)-5-[4-(quinolin-3-yl)-9H-carbazol-9-yl]pyridine-2-carboxamide]
< 1000 nM		NC(=O)c1ccc(-n2c3ccccc3c3c(-c4cnc5ccccc5c4)cccc32)cc1NCCn1ccnc1 [Example 87, 2-[2-(1H-imidazol-1-yl)ethylamino]-4-[4-(quinolin-3-yl)-9H-carbazol-9-yl]benzamide]

From US8309721B2, “HSP90 inhibitory carbazole derivatives, compositions containing same and use thereof” (Sanofi, priority 2008, dated 2012)
